# Experimental data published in patent publication US20230021483A1, “[…] […] METHOD AND CLASSIFICATION OF PHARMACEUTICAL COMPONENTS BY USING TRANSCRIPTOMES” (National Institutes of Biomedical Innovation, Health and …, priority 2016, published 2023).
# Test system: adjuvant-associated biological themes in LV, SP, LN
# Conditions: LV, ID
# Source text: A defined sets of genes were selected according to specified criteria (e.g., FC, PA-call, threshold values). Their functional enrichment values were then obtained from TargetMine (Chen, Y. A., Tripathi, L. P. & Mizuguchi, K. PloS one 6, e17844 (2011)) (http://targetmine.mizuguchilab.org/) using the API interface. The following resources were used throughout the analysis via TargetMine Interface (GO, GOSlim, Integrated Pathway, KEGG, Reactome, and the NCI pathway). The Holm-Bonferroni method was used for multiple testing corrections.
# Whole organ transcriptome data for each organ from each mouse were analyzed as follows to obtain biological themes for individual samples from each adjuvant-administered group of three mice. […] A set of Pj genes was first defined, where eij/ei(c)>2.0. Biological themes enriched within Pj were then identified using TargetMine (Chen, Y. A. et al., PloS one 6, e17844 (2011)) (http://targetmine.mizuguchilab.org/). Tj denote the resulting list of biological themes, with associated p-values from Fischer's exact test.
# Next, the biological themes called by all the individual samples in the group were scored as follows. Having obtained three lists (T1, T2 and T3) for a given experimental condition, a consensus list T of themes was created as T={(t1, p1), (t2, p2), . . . }, where ti is a biological theme that appears in all of T1, T2 and T3, and pi is the smallest of the associated p-values. Only the themes with the p-value of <0.05 were included in T.
# To summarize the biological themes in T further, a list of terms considered to be associated with adjuvant activity in general was separately prepared. AT={at1, at2, . . . }, where ati is a pre-selected adjuvant-associated term (e.g., “stress” or “cytokine”). Finally, an enrichment score S for an adjuvant-associated term ati was defined as: S(ati)=Σ−log(pj), where the name of tj in T includes a term ati as a substring and pj is the associated p-value.
# This scoring scheme summarizes the relative enrichment of pre-selected adjuvant-associated terms in genes responding to each adjuvant in each organ.
substance,measurement,value
Poly_IC,"IFN alpha, GO annotation line 1 of 5",13.3
same,"IFN alpha, GO annotation line 2 of 5",4.7
same,IFN alpha: cellular response to interferon-alpha,4.95
same,IFN alpha: positive regulation of interferon-alpha production,5.95
same,IFN alpha: regulation of interferon-alpha production,5.3
same,IFN beta: cellular response to interferon-beta,17.2
same,IFN beta: interferon-beta production,9.35
same,IFN beta: positive regulation of interferon-beta production,8.94
same,IFN beta: regulation of interferon-beta production,7.54
same,IFN beta: response to interferon-beta,23
same,IFN gamma: cellular response to interferon-gamma,10.5
same,IFN gamma: interferon-gamma production,5.43
same,IFN gamma: regulation of interferon-gamma production,5.32
same,IFN gamma: response to interferon-gamma,22.3
same,"NF-kappa B signaling pathway, GO annotation line 1 of 4",18
same,"NF-kappa B signaling pathway, GO annotation line 2 of 4",13.5
same,"NF-kappa B signaling pathway, GO annotation line 3 of 4",8.57
same,"NF-kappa B signaling pathway, GO annotation line 4 of 4",9.04
same,TNF signaling pathway,22.1
same,"adaptive immune response, GO annotation line 1 of 5",11.9
same,"adaptive immune response, GO annotation line 2 of 5",13
same,"adaptive immune response, GO annotation line 3 of 5",7.16
same,"adaptive immune response, GO annotation line 4 of 5",6.84
same,"adaptive immune response, GO annotation line 5 of 5",0
same,"apoptosis, GO annotation line 1 of 8",15.7
same,"apoptosis, GO annotation line 2 of 8",14.8
same,"apoptosis, GO annotation line 3 of 8",12.4
same,"apoptosis, GO annotation line 4 of 8",7.32
same,"apoptosis, GO annotation line 5 of 8",3.59
same,"apoptosis, GO annotation line 6 of 8",7.04
same,"apoptosis, GO annotation line 7 of 8",4.79
same,"apoptosis, GO annotation line 8 of 8",0
same,"cell death, GO annotation line 1 of 9",22.6
same,"cell death, GO annotation line 2 of 9",17.8
same,"cell death, GO annotation line 3 of 9",18.1
same,"cell death, GO annotation line 4 of 9",15.4
same,"cell death, GO annotation line 5 of 9",15.6
same,"cell death, GO annotation line 6 of 9",4.25
same,"cell death, GO annotation line 7 of 9",3.46
same,"cell death, GO annotation line 8 of 9",4.38
same,"cell death, GO annotation line 9 of 9",4.89
same,"chemokine, GO annotation line 1 of 4",6.25
same,"chemokine, GO annotation line 2 of 4",7.84
same,"chemokine, GO annotation line 3 of 4",9.13
same,"chemokine, GO annotation line 4 of 4",9
same,"chemotaxis, GO annotation line 1 of 11",20.7
same,"chemotaxis, GO annotation line 2 of 11",6.87
same,"chemotaxis, GO annotation line 3 of 11",22
same,"chemotaxis, GO annotation line 4 of 11",13.1
same,"chemotaxis, GO annotation line 5 of 11",6.8
same,"chemotaxis, GO annotation line 6 of 11",7.42
same,"chemotaxis, GO annotation line 7 of 11",7.6
same,"chemotaxis, GO annotation line 8 of 11",8.31
same,"chemotaxis, GO annotation line 9 of 11",9.92
same,"chemotaxis, GO annotation line 10 of 11",6.5
same,"chemotaxis, GO annotation line 11 of 11",3.15
same,"cytokine, GO annotation line 1 of 17",66.1
same,"cytokine, GO annotation line 2 of 17",48.5
same,"cytokine, GO annotation line 3 of 17",42.3
same,"cytokine, GO annotation line 4 of 17",12.1
same,"cytokine, GO annotation line 5 of 17",45.6
same,"cytokine, GO annotation line 6 of 17",43.5
same,"cytokine, GO annotation line 7 of 17",20.9
same,"cytokine, GO annotation line 8 of 17",7.3
same,"cytokine, GO annotation line 9 of 17",8.4
same,"cytokine, GO annotation line 10 of 17",34.3
same,"cytokine, GO annotation line 11 of 17",12.6
same,"cytokine, GO annotation line 12 of 17",4.18
same,"cytokine, GO annotation line 13 of 17",15
same,"cytokine, GO annotation line 14 of 17",14.5
same,"cytokine, GO annotation line 15 of 17",3.4
same,"cytokine, GO annotation line 16 of 17",3.66
same,"cytokine, GO annotation line 17 of 17",5.29
same,"defense response, GO annotation line 1 of 11",90.6
same,"defense response, GO annotation line 2 of 11",57.5
same,"defense response, GO annotation line 3 of 11",41.3
same,"defense response, GO annotation line 4 of 11",48.9
same,"defense response, GO annotation line 5 of 11",15.8
same,"defense response, GO annotation line 6 of 11",6.93
same,"defense response, GO annotation line 7 of 11",4.67
same,"defense response, GO annotation line 8 of 11",25.8
same,"defense response, GO annotation line 9 of 11",6.75
same,"defense response, GO annotation line 10 of 11",4.62
same,"defense response, GO annotation line 11 of 11",0
same,"immune response, GO annotation line 1 of 8",79.8
same,"immune response, GO annotation line 2 of 8",35.5
same,"immune response, GO annotation line 3 of 8",39.5
same,"immune response, GO annotation line 4 of 8",23.2
same,"immune response, GO annotation line 5 of 8",20.5
same,"immune response, GO annotation line 6 of 8",23.7
same,"immune response, GO annotation line 7 of 8",3.8
same,"immune response, GO annotation line 8 of 8",4.58
same,"inflammatory response, GO annotation line 1 of 5",32.2
same,"inflammatory response, GO annotation line 2 of 5",14.4
same,"inflammatory response, GO annotation line 3 of 5",5.99
same,"inflammatory response, GO annotation line 4 of 5",0
same,"inflammatory response, GO annotation line 5 of 5",0
same,"innate immune response, GO annotation line 1 of 6",59.5
same,"innate immune response, GO annotation line 2 of 6",40.7
same,"innate immune response, GO annotation line 3 of 6",27.7
same,"innate immune response, GO annotation line 4 of 6",23.3
same,"innate immune response, GO annotation line 5 of 6",18.5
same,"innate immune response, GO annotation line 6 of 6",7.74
same,interleukin-6: interleukin-6 production,9.62
same,interleukin-6: positive regulation of interleukin-6 production,5.06
same,interleukin-6: regulation of interleukin-6 production,10.2
same,interleukin-12: interleukin-12 production,6.82
same,interleukin-12: positive regulation of interleukin-12 production,4.28
same,interleukin-12: regulation of interleukin-12 production,7.39
same,"migration, GO annotation line 1 of 10",22.1
same,"migration, GO annotation line 2 of 10",6.99
same,"migration, GO annotation line 3 of 10",23.4
same,"migration, GO annotation line 4 of 10",18.5
same,"migration, GO annotation line 5 of 10",9
same,"migration, GO annotation line 6 of 10",9.34
same,"migration, GO annotation line 7 of 10",8.14
same,"migration, GO annotation line 8 of 10",7.59
same,"migration, GO annotation line 9 of 10",6.05
same,"migration, GO annotation line 10 of 10",3.46
same,"stress, GO annotation line 1 of 3",58.8
same,"stress, GO annotation line 2 of 3",40.8
same,"stress, GO annotation line 3 of 3",5.39
same,"wounding, GO annotation line 1 of 3",16.7
same,"wounding, GO annotation line 2 of 3",14.8
same,"wounding, GO annotation line 3 of 3",9.8
